The numbers were not newly measured in patent US20220295833A1, “SWEETENER BLENDS WITH IMPROVED TASTE” (The Coca-Cola Company, priority 2019, published 2022), which cites them from elsewhere.

With `C=C1C[C@@]23CC[C@H]4[C@@](C)(CCC[C@@]4(C)C(=O)O[C@@H]4O[C@H](CO)[C@@H](O)[C@H](O)[C@H]4O)[C@@H]2CC[C@]1(O[C@@H]1O[C@H](CO)[C@@H](O)[C@H](O[C@@H]2O[C@H](CO)[C@@H](O)[C@H](O)[C@H]2O)[C@H]1O[C@@H]1O[C@H](CO)[C@@H](O)[C@H](O)[C@H]1O)C3` [Rebaudioside A], the aqueous solubility entry is “about 0.8 wt %”.
